Key:
Format in all cases: in vivo
[1] = tested on: cotton aphid (CA) Aphis gossypii; experiment: Cotton aphid track-sprayer test on cotton: Compound A or imidacloprid with Durango (glyphosate) or Durango Blank and AMS (Example XVI); conditions: average of 5 reps
Method: Glyphosate resistant cotton plants (Gossypium hirsutum, cv ‘DP493’) were trimmed to 1 true leaf and infested with mixed stages of cotton aphid (CA) Aphis gossypii 24 h prior to application. Mixed developmental stage CA were infested onto the upper surface of each treated leaf by transferring infested foliage from an insectary colony. Each plant was infested with approximately equal numbers of CA based on visual estimation of aphid density on the infested material. Infested plants were held in the growth chamber (L:D 16:8 and 25° C.). Glyphosate (Durango®, Dow AgroSciences, LLC, Indianapolis, Ind.) was mixed with water at a rate equivalent to 15 ml/L (1.2 qt/Ac). […] A glyphosate free formulation of Durango® was prepared using these same mixing instructions. […] High rate Compound A concentrations were created by diluting Compound A technical material with acetone to achieve a 10 ppm solution. […] […] […] Nozzle height above the canopy was held constant at ca. 30 cm. Plants were evaluated after 3 days from the time of infestation by counting all live cotton aphids on each plant.
[…] Percent control for all treatments was calculated using the rep average for the untreated plants.

[2] = tested on: cotton aphid (CA) Aphis gossypii; experiment: Cotton aphid track-sprayer test on cotton: Compound A or imidacloprid with glufosinate (Liberty) and AMS (Example XVII); conditions: AMS 18 mg/ml, no insecticide, no glufosinate
Method: (§1) Glyphosate resistant cotton plants (Gossypium hirsutum, cv ‘DP493’) were trimmed to 1 true leaf and infested with mixed stages of cotton aphid (CA) Aphis gossypii 24 h prior to application. Mixed developmental stage CA were infested onto the upper surface of each treated leaf by transferring infested foliage from an insectary colony. Each plant was infested with approximately equal numbers of CA based on visual estimation of aphid density on the infested material. Infested plants were held in the growth chamber (L:D 16:8 and 25° C.). Glufosinate (Liberty®, Bayer CropScience, Monheim am Rhein, Germany) was mixed with water at a rate equivalent to 5 ml/L (0.4 qt/Ac). […] High rate Compound A concentrations were created by diluting Compound A technical material with acetone to achieve a 10 ppm solution. […] […] […] Nozzle height above the canopy was held constant at ca. 30 cm. Plants were evaluated after 3 days from the time of infestation by counting all live cotton aphids on each plant.
TABLE 6 contains the calculated Colby values for combinations of treatments as well as the outcome of statistical evaluations between predicted (Colby) and actual measured values. These T-test statistics were only calculated for the 0.2 and 0.05 g/Ha rates. […] These same trends were apparent when Compound A was applied with both glufosinate and AMS.

[3] = tested on: cotton aphid (CA) Aphis gossypii; experiment: Cotton aphid track-sprayer test on cotton: Compound A with glufosinate (Liberty) and AMS, rates 0.4, 0.1 and 0.025 g/Ha (Example XVIII); conditions: AMS 18 g/L, no insecticide, no Lib.
Method: as §1, with “24 hours” for “24 h”, “a 20” for “a 10”

With `N.N.O=S(=O)(O)O` [AMS, ammonium sulfate] the “% control Ave” value ([1]; AMS 18 g/L alone, 0 g insecticide/Ha, block of Durango treatments) was −7.0%, the “% control Ave” value ([1]; AMS 18 g/L alone, no insecticide, block of Durango Blank treatments) was 13.3% and the “% control Ave” value ([1]; AMS 18 g/L with Durango Blank 0.015 ml/ml, no insecticide) was 26.5%. The “% control AVE” value [2] was 4.5% and the “% Control (Negatives to zero) Ave” value [3] was 13.2%.
